# Assay results reported in US20050282818A1, “Ubiquitin ligase inhibitors” (Rigel Pharmaceuticals, Inc., priority 2004, published 2005).
# pIC50: −log10 of the molar value. Where two headings read alike, the source gives them in different places.
# Legend:
# U2OS cells = assay: Cell proliferation PAD assay, U2OS; type: cell-based; conditions: Homo sapiens, 6pt, 48 hours
# Excerpt: (§1) Table 3 illustrates the inhibitory activity of the compounds of the invention determined by the PAD assay described above in a number of cell types. Apoptosis was not
# (§2) Cell lines used are available from American Type Culture Collection (ATCC), for example, cell cultures containing A549 (ATCC# CCL-185), HeLa (ATCC# CCL-2), HCT116 ATTC# CCL-247), and H1299 (ATCC# CRL-5803) cells were maintained in T175 flasks following the ATCC recommended media and handling procedures. […] A 20,000 cells/ml solution was made for plating. Cells were plated in black Packard 96 well plates by placing 100 μl per well (2,000 cells per well). […] The definitions of the cell types used are as follows: A549 is lung carcinoma; HI 299 is non-small cell lung carcinoma; HI 155 is non-small cell lung carcinoma; AsPC-1 is pancreatic adenocarcinoma; Caov-3 is ovarian adenocarcinoma; COLO 205 is colorectal adenocarcinoma; DLD-1 colorectal adenocarcinoma; HCT116 is colorectal carcinoma; DU 145 is prostate carcinoma; ES-2 is ovarian clear cell carcinoma; H460 is large cell lung carcinoma; HELA is cervical adenocarcinoma; MIA PaCa-2 is pancreatice carcinoma; OVCAR-3 is ovarian adenocarcinoma; OVCAR8 is ovarian carcinoma; PC3 is prostate adenocarcinoma; SK-OV-3 is ovarian adenocarcinoma; SU86.86 is pancreatic carcinoma; TOV-21G is avarian clear cell carcinoma; U2OS is bone osteosarcoma; is ASPC-I is pancreatic adenocarcinoma; BXPC-3 is pabcreatic adenocarcinoma; HL60 is promyeloblast promyelocytic leukemia; K562 is bone marrow chronic myelogenous leukemia; L1210 is mouse lymphocytic leukemia; MOLT3 is T lymphoblast acute lymphoblastic leukemia; MOLT4 is T lymphoblast acute lymphoblastic leukemia; SW620 is colorectal adenocarcinoma; THP-1 is monocyte acute monocytic leukemia; U937 is histiocytic lymphoma; and UACC-257 is melanoma.
# (§3) Compounds and additional media were added 24 hours after cell plating. A compound master plate was created with concentrations 500 times greater than the final concentration added to the cells. All compound testing was done in duplicate using 6.3 fold dilutions starting with 10 mM. All outside wells (and 4 internal wells) were DMSO controls. Taxol and at least one additional control were run on all plates. Three microliters of the compound master plate were added to deep well blocks containing 750 μl of RPMI media. One hundred microliters were transferred from the compound/media deep well blocks to the plated cells resulting in a 500 fold dilution of the compounds. Cells were grown at 37° C., 5% CO2 for 48 hours.
# (§4) Cells to be analyzed by photography were fixed and stained. One hundred microliters of media were removed and 100 μl of 9.3% formamide was added to each well. Plates were left on the benchtop for 45 minutes. A staining solution containing 1.55 μl of 1 mg/ml DAPI added to 18.75 ml PBS was warmed for 15 minutes at 37° C. The cells were aspirated prior to washing with 100 μl of PBS. Seventy microliters of PBS were aspirated and 170 μl of the DAPI solution were added to each well of fixed cells. Plates were left at room temperature for one hour then aspirated and washed twice with 100 μl of PBS. The stained cells were left at 4° C. for a minimum of 16 hours before photographic analysis with Array Scan II (Cellomics). Analysis of the photographic images to determine numbers of live cells (proliferation), apoptotic cells and dead cells, were according to the methods described in U.S. Utility patent application Ser. No. 10/652,440, which incorporated herein in its entirety.
# HELA cells = assay: Cell proliferation PAD assay, HeLa; type: cell-based; conditions: Homo sapiens, 6pt, 48 hours
# Excerpt: as §1, §2, §3, §4
# HCT116 cells = assay: Cell proliferation PAD assay, HCT116; type: cell-based; conditions: Homo sapiens, 48 hours
# Excerpt: as §1, §2, §3, §4
# ROC1/CUL1 = target: T1, ROC1/CUL1 (Homo sapiens, UniProt P62877+Q13616); assay: ROC1/CUL1 ubiquitin ligase assay (SCF assay); type: biochemical
# T1 construct: made in house
# T1 sequence (P62877 whole entry): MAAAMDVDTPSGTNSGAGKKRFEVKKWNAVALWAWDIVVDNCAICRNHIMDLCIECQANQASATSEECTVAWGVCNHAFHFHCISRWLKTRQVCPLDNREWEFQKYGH
# T1 sequence (Q13616 whole entry): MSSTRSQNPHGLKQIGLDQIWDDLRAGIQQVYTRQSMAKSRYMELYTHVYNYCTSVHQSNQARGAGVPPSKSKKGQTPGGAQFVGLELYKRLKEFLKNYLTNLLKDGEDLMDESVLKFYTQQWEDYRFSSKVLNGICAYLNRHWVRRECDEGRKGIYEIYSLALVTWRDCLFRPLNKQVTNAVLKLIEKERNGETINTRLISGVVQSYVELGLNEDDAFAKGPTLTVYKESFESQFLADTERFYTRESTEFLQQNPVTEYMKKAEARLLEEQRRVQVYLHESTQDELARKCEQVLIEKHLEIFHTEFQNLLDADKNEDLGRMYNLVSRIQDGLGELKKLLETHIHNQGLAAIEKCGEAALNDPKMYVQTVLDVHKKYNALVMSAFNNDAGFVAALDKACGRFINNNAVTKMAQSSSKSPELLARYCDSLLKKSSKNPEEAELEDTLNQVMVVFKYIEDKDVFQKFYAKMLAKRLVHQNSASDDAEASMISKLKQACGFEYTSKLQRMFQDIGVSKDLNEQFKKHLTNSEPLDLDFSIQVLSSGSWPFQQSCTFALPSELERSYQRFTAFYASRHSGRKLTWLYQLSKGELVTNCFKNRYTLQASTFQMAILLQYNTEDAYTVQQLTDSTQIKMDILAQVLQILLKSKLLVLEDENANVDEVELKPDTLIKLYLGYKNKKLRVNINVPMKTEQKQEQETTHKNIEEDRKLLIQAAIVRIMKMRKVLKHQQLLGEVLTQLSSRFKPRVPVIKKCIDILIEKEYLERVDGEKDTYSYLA
# How it was run: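 His-ROC1/CUL1 (100 ng/well) with E1 (5 ng/well), UbcH5c E2 (25 nl/well) and Flag-ubiquitin (100 ng) on nickel-coated plates; the reaction solution held Tris pH 7.5, MgCl2, DTT and 2.5 mM ATP. Compounds were added and the reaction ran 1 h at RT. Bound ubiquitin was read by anti-Flag/HRP luminescence, giving IC50 across compound concentrations.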
# [1] = HCT-116, 6pt, read-out: HCT116 6pt
pIC50 (U2OS cells),pIC50 (HELA cells),pIC50 (HCT116 cells; [1]),"pIC50 (HCT116 cells; HCT-116, 9pt, read-out: HCT116 9pt)",pIC50 (ROC1/CUL1),SMILES
4.70 to 6.00,4.70 to 6.00,4.70 to 6.00,–,–,"O=S(=O)(Nc1ccc2cn[nH]c2c1)c1ccc(Cl)c2nonc12 [compound 220, 7-chloro-N-1 H-indazol-6-yl-2,1,3-benzoxadiazole-4-sulfonamide]"
> 6.00,> 6.00,> 6.00,–,–,"O=[N+]([O-])c1ccc(SCCO)c2nonc12 [compound 150, 2-[(7-nitro-2,1,3-benzoxadiazol-4-yl)thio]ethanol]"
> 6.00,> 6.00,> 6.00,–,–,"COC(=O)c1ccc(NS(=O)(=O)c2c(Cl)ccc3nonc23)cc1 [compound 178, methyl 4-{[(5-chloro-2,1,3-benzoxadiazol-4-yl)sulfonyl]amino}benzoate]"
> 6.00,4.70 to 6.00,4.70 to 6.00,–,–,"O=S(=O)(c1c(Cl)ccc2nonc12)N1CCN(c2ncc(C(F)(F)F)cc2Cl)CC1 [compound 179, 5-chloro-4-({4-[3-chloro-5-(trifluoromethyl)pyridin-2-yl]piperazin-1-yl}sulfonyl)-2,1,3-benzoxadiazole]"
> 6.00,–,–,–,–,"O=c1[nH]c2ccccc2n1C1CCN(S(=O)(=O)c2ccc(Cl)c3nonc23)CC1 [compound 188, 1-{1-[(7-chloro-2,1,3-benzoxadiazol-4-yl)sulfonyl]piperidin-4-yl}-1,3-dihydro-2H-benzimidazol-2-one]"

# The next lines start with the molecule.
SMILES,pIC50 (U2OS cells),pIC50 (HELA cells),pIC50 (HCT116 cells; [1]),"pIC50 (HCT116 cells; HCT-116, 9pt, read-out: HCT116 9pt)",pIC50 (ROC1/CUL1)
"Cc1cccc(N2CCN(S(=O)(=O)c3c(Cl)ccc4nonc34)CC2)n1 [compound 202, 5-chloro-4-{[4-(6-methylpyridin-2-yl)piperazin-1-yl]sulfonyl}-2,1,3-benzoxadiazole]",> 6.00,4.70 to 6.00,> 6.00,–,–
"Cc1cc(C)cc(-c2ccc([N+](=O)[O-])c3nonc23)c1 [compound 286, 4-(3,5-Dimethylphenyl)-7-nitro-2,1,3-benzoxadiazole]",> 6.00,4.70 to 6.00,> 6.00,–,–
"CC1(C)CCN(S(=O)(=O)c2c(Cl)ccc3nonc23)CC1 [compound 245, 5-chloro-4-[(4,4-dimethylpiperidin-1-yl)sulfonyl]-2,1,3-benzoxadiazole]",–,≤ 4.70,–,> 6.00,≤ 4.70
"CC(=O)N1CCN(S(=O)(=O)c2c(Cl)ccc3nonc23)CC1 [compound 201, 4-[(4-acetylpiperazin-1-yl)sulfonyl]-5-chloro-2,1,3-benzoxadiazole]",> 6.00,–,–,–,–
